{
  "source": "patent US7833986B2",
  "about": "“Anti-inflammatory peptides” (Salpep Biotechnology Inc., priority 2002, dated 2010)",
  "origin": "cited, not measured here",
  "tested_on": "lipopolysaccharide-induced hypotension",
  "conditions": "Mathison et al. (1997)",
  "data": [
    {"substance": "submandibular gland peptide-T [SGP-T]", "values": [
      {"measurement": "doses that inhibit lipopolysaccharide-induced hypotension", "value": "≥ 1", "unit": "µg/kg"}
    ]}
  ]
}
